Data: ChEMBL document CHEMBL1201862, “PubChem BioAssay data set” (2004)
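Test compounds were applied to cells in 96-well plates for 48 hours at 5 doses. GI50 = concentration required for 50% inhibition of growth.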 Activity calls are given as the source filed them. Cut-off read from the data, not from the text of the source: active = GI50 up to about 1.1 µM and inactive = higher.

Key:
Test in all cases: NCI anticancer screen, dose series, 48 h
786-0 = tested on: 786-0
ACHN = tested on: ACHN
BT-549 = tested on: BT-549
COLO 205 = tested on: COLO 205
EKVX = tested on: EKVX
IGROV-1 = tested on: IGROV-1
KM12 = tested on: KM12
Malme-3M = tested on: Malme-3M
NCI-H23 = tested on: NCI-H23
OVCAR-4 = tested on: OVCAR-4
OVCAR-8 = tested on: OVCAR-8
PC-3 = tested on: PC-3
RXF 393 = tested on: RXF 393
SF-268 = tested on: SF-268
SN12C = tested on: SN12C
T47D = tested on: T47D
UACC-62 = tested on: UACC-62
UO-31 = tested on: UO-31
Hs-578T = tested on: Hs-578T

SMILES: O=C(O)c1cccc(SSc2cccc(C(=O)O)c2)c1
- GI50 (786-0): > 100 µM (inactive)
- GI50 (ACHN): > 100 µM (inactive)
- GI50 (BT-549): > 100 µM (inactive)
- GI50 (COLO 205): > 100 µM (inactive)
- GI50 (EKVX): > 100 µM (inactive)
- GI50 (IGROV-1): > 100 µM (inactive)
- GI50 (KM12): > 100 µM (inactive)
- GI50 (Malme-3M): > 100 µM (inactive)
- GI50 (NCI-H23): > 100 µM (inactive)
- GI50 (OVCAR-4): > 100 µM (inactive)
- GI50 (OVCAR-8): > 100 µM (inactive)
- GI50 (PC-3): > 100 µM (inactive)
- GI50 (RXF 393): > 100 µM (inactive)
- GI50 (SF-268): > 100 µM (inactive)
- GI50 (SN12C): > 100 µM (inactive)
- GI50 (T47D): > 100 µM (inactive)
- GI50 (UACC-62): > 100 µM (inactive)
- GI50 (UO-31): > 100 µM (inactive)

SMILES: CS(=O)(=O)N1CC(CI)c2ccc(O)cc21 (configuration not stated)
- GI50 (786-0): 3.24 µM (inactive)
- GI50 (ACHN): 2.67 µM (inactive)
- GI50 (BT-549): 3.68 µM (inactive)
- GI50 (COLO 205): 2.88 µM (inactive)
- GI50 (EKVX): 3.74 µM (inactive)
- GI50 (Hs-578T): 3.41 µM (inactive)
- GI50 (IGROV-1): 3.98 µM (inactive)
- GI50 (KM12): 3.59 µM (inactive)
- GI50 (Malme-3M): 1.93 µM (inactive)
- GI50 (NCI-H23): 1.32 µM (inactive)
- GI50 (OVCAR-4): 1.96 µM (inactive)
- GI50 (OVCAR-8): 2.89 µM (inactive)
- GI50 (PC-3): 2.6 µM (inactive)
- GI50 (RXF 393): 1.07 µM (active)
- GI50 (SF-268): 1.32 µM (inactive)
- GI50 (SN12C): 3.44 µM (inactive)
- GI50 (UO-31): 3.35 µM (inactive)

SMILES: O=C(CCNC12CC3CC(CC(C3)C1)C2)c1ccccc1
- GI50 (786-0): 16.3 µM (inactive)
- GI50 (ACHN): 25.9 µM (inactive)
- GI50 (BT-549): 28.7 µM (inactive)
- GI50 (COLO 205): 15 µM (inactive)
- GI50 (IGROV-1): 21.6 µM (inactive)
- GI50 (KM12): 23.6 µM (inactive)
- GI50 (Malme-3M): 18.2 µM (inactive)
- GI50 (NCI-H23): 20.1 µM (inactive)
- GI50 (OVCAR-4): 36.8 µM (inactive)
- GI50 (OVCAR-8): 21.6 µM (inactive)
- GI50 (PC-3): 19.6 µM (inactive)
- GI50 (RXF 393): 20.1 µM (inactive)
- GI50 (SF-268): 24.6 µM (inactive)
- GI50 (SN12C): 16.6 µM (inactive)
- GI50 (T47D): 20.6 µM (inactive)
- GI50 (UACC-62): 19.6 µM (inactive)
- GI50 (UO-31): 25.1 µM (inactive)

SMILES: Nc1cc(N2CCCC2)nc(=O)n1Cc1ccccc1
- GI50 (786-0): > 100 µM (inactive)
- GI50 (ACHN): > 100 µM (inactive)
- GI50 (BT-549): > 100 µM (inactive)
- GI50 (COLO 205): > 100 µM (inactive)
- GI50 (EKVX): > 100 µM (inactive)
- GI50 (IGROV-1): > 100 µM (inactive)
- GI50 (KM12): > 100 µM (inactive)
- GI50 (Malme-3M): > 100 µM (inactive)
- GI50 (NCI-H23): > 100 µM (inactive)
- GI50 (OVCAR-4): > 100 µM (inactive)
- GI50 (OVCAR-8): > 100 µM (inactive)
- GI50 (PC-3): > 100 µM (inactive)
- GI50 (SF-268): 39.5 µM (inactive)
- GI50 (SN12C): > 100 µM (inactive)

SMILES: COC(=O)[C@H](CCSC)NC(=O)c1ccc(CNC(=O)/C(C)=C/c2ccccc2)cc1
- GI50 (786-0): 20.8 µM (inactive)
- GI50 (ACHN): 44.3 µM (inactive)
- GI50 (BT-549): 24.7 µM (inactive)
- GI50 (COLO 205): > 100 µM (inactive)
- GI50 (EKVX): 83.2 µM (inactive)
- GI50 (IGROV-1): 50.1 µM (inactive)
- GI50 (KM12): 82.4 µM (inactive)
- GI50 (Malme-3M): 15.3 µM (inactive)
- GI50 (NCI-H23): 45.8 µM (inactive)
- GI50 (OVCAR-4): 31.1 µM (inactive)
- GI50 (OVCAR-8): 23.3 µM (inactive)
- GI50 (PC-3): 47 µM (inactive)
- GI50 (RXF 393): 15.8 µM (inactive)
- GI50 (SF-268): 25.8 µM (inactive)
- GI50 (SN12C): 88.1 µM (inactive)
- GI50 (T47D): 21.8 µM (inactive)
- GI50 (UACC-62): 32.3 µM (inactive)
- GI50 (UO-31): 43.5 µM (inactive)

SMILES: COC1=C[C@]2(CCC(=O)O2)[C@@H]2Cc3ccccc3[C@H](O)[C@@H]2C1=O
- GI50 (786-0): 70.5 µM (inactive)
- GI50 (ACHN): 49.2 µM (inactive)
- GI50 (BT-549): 49.3 µM (inactive)
- GI50 (COLO 205): > 100 µM (inactive)
- GI50 (EKVX): > 100 µM (inactive)
- GI50 (Hs-578T): > 100 µM (inactive)
- GI50 (IGROV-1): 82.6 µM (inactive)
- GI50 (KM12): > 100 µM (inactive)
- GI50 (Malme-3M): 24.5 µM (inactive)
- GI50 (NCI-H23): 40.3 µM (inactive)
- GI50 (OVCAR-4): 43.2 µM (inactive)
- GI50 (OVCAR-8): 38 µM (inactive)
- GI50 (PC-3): 31.2 µM (inactive)
- GI50 (SF-268): 68.9 µM (inactive)
- GI50 (SN12C): 47.6 µM (inactive)
- GI50 (T47D): 13.1 µM (inactive)
- GI50 (UACC-62): 24.8 µM (inactive)
- GI50 (UO-31): 39.8 µM (inactive)

SMILES: O=C1CCCCC/C1=C\c1ccc(F)cc1
- GI50 (786-0): > 100 µM (inactive)
- GI50 (ACHN): > 100 µM (inactive)
- GI50 (BT-549): 99.1 µM (inactive)
- GI50 (COLO 205): > 100 µM (inactive)
- GI50 (EKVX): > 100 µM (inactive)
- GI50 (Hs-578T): 86.1 µM (inactive)
- GI50 (IGROV-1): > 100 µM (inactive)
- GI50 (KM12): > 100 µM (inactive)
- GI50 (Malme-3M): > 100 µM (inactive)
- GI50 (NCI-H23): > 100 µM (inactive)
- GI50 (OVCAR-4): 95.5 µM (inactive)
- GI50 (PC-3): > 100 µM (inactive)
- GI50 (SF-268): > 100 µM (inactive)
- GI50 (SN12C): > 100 µM (inactive)
- GI50 (T47D): > 100 µM (inactive)
- GI50 (UACC-62): 40.3 µM (inactive)
- GI50 (UO-31): 42.4 µM (inactive)

SMILES: O=c1[nH]c(-c2ccccc2)nc2ccc(Cl)cc12
- GI50 (786-0): 60.8 µM (inactive)
- GI50 (ACHN): 73.1 µM (inactive)
- GI50 (COLO 205): > 100 µM (inactive)
- GI50 (EKVX): 54.7 µM (inactive)
- GI50 (KM12): 68.5 µM (inactive)
- GI50 (Malme-3M): 48.6 µM (inactive)
- GI50 (NCI-H23): 77.4 µM (inactive)
- GI50 (OVCAR-4): 30.3 µM (inactive)
- GI50 (OVCAR-8): 43.8 µM (inactive)
- GI50 (RXF 393): 20 µM (inactive)
- GI50 (SF-268): 28 µM (inactive)
- GI50 (SN12C): 41 µM (inactive)
- GI50 (UO-31): 48.1 µM (inactive)

SMILES: COC1=CC(=O)N(C(=O)C2CSC(C(CO)NC(=O)c3csc(/C=N/O)n3)=N2)C1 (configuration not stated)
- GI50 (786-0): > 100 µM (inactive)
- GI50 (ACHN): > 100 µM (inactive)
- GI50 (BT-549): > 100 µM (inactive)
- GI50 (COLO 205): > 100 µM (inactive)
- GI50 (EKVX): > 100 µM (inactive)
- GI50 (Hs-578T): 15.9 µM (inactive)
- GI50 (IGROV-1): > 100 µM (inactive)
- GI50 (KM12): > 100 µM (inactive)
- GI50 (Malme-3M): 64.4 µM (inactive)
- GI50 (NCI-H23): > 100 µM (inactive)
- GI50 (OVCAR-8): > 100 µM (inactive)
- GI50 (PC-3): > 100 µM (inactive)
- GI50 (SF-268): > 100 µM (inactive)
- GI50 (SN12C): > 100 µM (inactive)
- GI50 (UACC-62): > 100 µM (inactive)
